Measured values published in US6376521B1, “A3 adenosine receptor antagonists” (The United States of America as represented by the …, priority 1998, dated 2002).
Like-named read-outs stand apart in the source and are kept apart here.

Legend:
[1] = molecular target: T1, rat A3 receptors (Rattus norvegicus, UniProt P28647); assay: Displacement of specific [125I]AB-MECA binding at rat A3 receptors stably expressed in CHO cells
T1 construct: expressed in transfected cells
T1 sequence (P28647 1-320): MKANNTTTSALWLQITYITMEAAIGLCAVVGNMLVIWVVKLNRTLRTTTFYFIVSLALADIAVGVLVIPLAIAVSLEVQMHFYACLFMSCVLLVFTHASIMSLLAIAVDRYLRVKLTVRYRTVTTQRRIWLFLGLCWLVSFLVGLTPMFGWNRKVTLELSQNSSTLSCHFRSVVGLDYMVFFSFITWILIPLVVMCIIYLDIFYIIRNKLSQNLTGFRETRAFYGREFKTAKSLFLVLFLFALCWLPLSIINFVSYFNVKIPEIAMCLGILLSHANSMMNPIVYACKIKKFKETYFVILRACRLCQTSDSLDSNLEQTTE

[2] = molecular target: T2, A2A adenosine receptors (Rattus norvegicus, UniProt P30543); assay: Displacement of specific [3H]CGS 21680 binding in rat striatal membranes; conditions: for Ki: [3H]CGS 21680, rat striatal membranes, n = 3-6, read-out: rA2A Ki ± S.E.M.; for rA2A percentage of specific binding displaced: Table 2
T2 construct: from tissue
T2 sequence (P30543 whole entry): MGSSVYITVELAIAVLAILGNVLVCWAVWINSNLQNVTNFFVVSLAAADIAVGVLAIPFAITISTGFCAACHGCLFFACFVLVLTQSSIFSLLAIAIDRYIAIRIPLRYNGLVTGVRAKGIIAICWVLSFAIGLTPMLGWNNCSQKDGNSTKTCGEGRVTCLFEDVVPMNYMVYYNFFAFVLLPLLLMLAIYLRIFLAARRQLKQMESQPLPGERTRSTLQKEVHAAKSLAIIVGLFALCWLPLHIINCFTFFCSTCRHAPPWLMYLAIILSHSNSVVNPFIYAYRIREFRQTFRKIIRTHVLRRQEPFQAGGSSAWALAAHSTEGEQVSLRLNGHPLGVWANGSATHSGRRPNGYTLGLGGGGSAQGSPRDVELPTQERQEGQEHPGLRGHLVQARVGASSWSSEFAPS

[3] = molecular target: T3, A1 adenosine receptors (Rattus norvegicus, UniProt P25099); assay: Displacement of specific [3H]R-PIA binding in rat brain membranes; conditions: for Ki: [3H]R-PIA, rat brain membranes, n = 3-5, read-out: rA1 Ki ± S.E.M.
T3 construct: from tissue
T3 sequence (P25099 1-326): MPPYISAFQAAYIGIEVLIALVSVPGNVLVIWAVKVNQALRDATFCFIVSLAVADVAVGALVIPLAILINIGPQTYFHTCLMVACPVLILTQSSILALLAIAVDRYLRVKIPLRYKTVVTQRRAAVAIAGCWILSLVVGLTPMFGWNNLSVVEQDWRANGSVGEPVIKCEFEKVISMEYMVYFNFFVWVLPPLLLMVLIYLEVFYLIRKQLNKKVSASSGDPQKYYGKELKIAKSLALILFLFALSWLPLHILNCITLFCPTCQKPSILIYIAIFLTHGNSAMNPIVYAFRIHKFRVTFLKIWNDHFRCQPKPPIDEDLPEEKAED

[4] = molecular target: T4, human A3 receptors (Homo sapiens, UniProt P0DMS8); assay: Displacement of specific [125I]AB-MECA binding at human A3 receptors expressed in HEK cells, in membranes; conditions: for Ki: Table 2, compounds 33-58, [125I]AB-MECA, HEK cell membranes, n = 3-4, read-out: hA3 Ki ± S.E.M.; for rA1/hA3: Table 2, ratio of affinities rat A1 vs human A3
T4 construct: expressed in transfected cells
T4 sequence (P0DMS8 1-318): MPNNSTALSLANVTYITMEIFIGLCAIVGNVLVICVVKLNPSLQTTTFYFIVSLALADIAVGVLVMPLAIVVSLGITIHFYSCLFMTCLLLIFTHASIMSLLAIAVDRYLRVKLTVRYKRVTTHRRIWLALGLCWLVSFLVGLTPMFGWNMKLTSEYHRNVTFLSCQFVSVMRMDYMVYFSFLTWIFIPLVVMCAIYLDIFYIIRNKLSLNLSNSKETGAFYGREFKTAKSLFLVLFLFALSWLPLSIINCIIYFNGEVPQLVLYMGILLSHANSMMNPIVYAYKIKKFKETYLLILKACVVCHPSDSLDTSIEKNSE

[5] = Table 4, [125I]AB-MECA, CHO cells, n = 3-5, read-out: rA3 Ki

SMILES	Ki ([2]; Table 2, compounds 33-58) [µM]	Ki [4] [µM]	rA1/hA3 [4]	Ki ([3]; Table 2, compounds 33-58) [µM]	other results
CCOC(=O)C1=C(c2ccccc2)NC(C)=C(C(=O)SCC)C1CC (racemic) [Compound 62, 5-Ethel 2-methyl-4ethyl-6-phenyl-3-(ethylsulfanylcarbonyl)-1,4-(±)-dihydropyridine-5-carboxylate]	–	–	–	–	Ki [1, 5]: 4.6 ± 0.38 µM; Ki ([2]; Table 3): 54.8 ± 18.8 µM; Ki ([3]; Table 3): 35.4 ± 4.5 µM
CCCC1C(C(=O)SCC)=C(C)NC(c2ccccc2)=C1C(=O)OCC (racemic) [Compound 64, 5-Ethyl 2-methyl-4-propyl-6-phenyl-3-(ethylsulfanylcarbonyl)-1,4-(±)-dihydropyridine-5-carboxylate]	–	–	–	–	Ki [1, 5]: 3.1 ± 0.78 µM; inhibition at 100 µM ([2]; Table 3, at 10^−4 M, read-out: rA2A % inhibition (percentage of specific binding displaced)): 29 ± 10%; inhibition at 100 µM ([3]; Table 3, at 10^−4 M, read-out: rA1 % inhibition (percentage of specific binding displaced)): 48 ± 5%
CCOC(=O)c1c(C)nc(-c2ccccc2)c(C(=O)OCC)c1C(OC)OC [Compound 40, 3,5-Diethyl 2-methyl-4-(dimethoxymethyl)-6-phenylpyridine-3,5-dicarboxylate]	2.88 ± 0.61	0.783 ± 0.154	2.5	1.95 ± 0.43	–
CCOC(=O)c1c(C)nc(-c2ccccc2)c(C(=O)OCc2ccccc2)c1C#Cc1ccccc1 [Compound 43]	–	2.75 ± 0.78	4.2	11.6 ± 4.8	rA2A percentage of specific binding displaced ([2]; at 10^−4 M): 43 ± 20% (10^−4)
CCOC(=O)c1c(C)nc(C2CCCC2)c(C(=O)OCc2ccccc2)c1C#Cc1ccccc1 [Compound 45, 3-Ethyl 5-benzyl 2-methyl-4-phenylethynyl-6-cyclopentylpyridine-3,5-dicarboxylate]	22.9 ± 5	3.85 ± 0.79	15	56.2 ± 20.8	–
CCOC(=O)c1c(CC)nc(-c2ccccc2)c(C(=O)OCC)c1C [Compound 46, 3,5-Diethyl 2-ethyl-4-methyl-6-phenylpyridine-3,5-dicarboxylate]	13.4 ± 4.2	0.121 ± 0.008	85	10.3 ± 1.7	–
CCOC(=O)c1c(-c2ccccc2)nc(C2CCC2)c(C(=O)SCC)c1CC [Compound 58, 5-Ethyl 2-cyclobutyl-4-ethyl-3-(ethylsulfanylcarbonyl)-6-phenylpyridine-5-carboxylate]	–	0.145 ± 0.044	>500	–	rA2A percentage of specific binding displaced ([2]; at 10^−4 M): 22% (10^−4); rA1 percentage of specific binding displaced ([3]; Table 2, at 10^−4 M): 30% (10^−4)

Continued, in another order:

Ki ([2]; Table 2, compounds 33-58) [µM]	Ki [4] [µM]	rA1/hA3 [4]	Ki ([3]; Table 2, compounds 33-58) [µM]	SMILES	other results
7.98 ± 1.36	0.165 ± 0.012	>500	–	CCOC(=O)c1c(-c2ccccc2)nc(C)c(C(=O)SCCOC)c1CC [Compound 37, 5-Ethyl 2-methyl-4-ethyl-3-[2-methoxy-(ethylsulfanylcarbonyl)]-6-phenylpyridine-5-carboxylate]	rA1 percentage of specific binding displaced ([3]; Table 2, at 10^−4 M): 36 ± 11% (10^−4)
27.6 ± 12	2.41 ± 0.59	–	–	CCOC(=O)c1c(C)nc(C2CCC2)c(C(=O)OCc2ccccc2)c1C#Cc1ccccc1 [Compound 44, 3-Ethyl 5-benzyl 2-methyl-4-phenylethynyl-6-cyclobutylpyridine-3,5-dicarboxylate]	rA1 displacement of specific binding (class d) ([3]; Table 2, at 10^−4 M): d (10^−4) (Displacement of <10% of specific binding at the indicated concentration (M).)
24.1 ± 7.9	–	–	41.4 ± 11.9	CCCOC(=O)c1c(-c2cccc(Cl)c2)nc(CC)c(C(=O)SCCC)c1CC [Compound 54, 5-Propyl 2,4-diethyl-3-propylsulfanylcarbonyl-6-(m-chlorophenyl)pyridine-5-carboxylate]	Ki [1]: 0.814 ± 0.037 µM
12.6 ± 1.7	0.0168 ± 0.002	600	10.1 ± 2.1	CCOC(=O)c1c(-c2ccccc2)nc(CCOC)c(C(=O)SCC)c1CC [Compound 56, 5-Ethyl 2-(2-methoxylethyl)-4-ethyl-3-(ethylsulfanylcarbonyl)-6-phenylpyridine-5-carboxylate]	–
